Results on 27 compounds are retold here after ChEMBL document CHEMBL1201862, “PubChem BioAssay data set” (2004).

Common to all, as to assay: NCI tumour cell line growth inhibition, 48 h
Assay [1] relates to DLD-1.
Assay [2] has as its system DMS-114.
Assay [3] concerns DMS-273.
Assay [4] has as its system HOP-18.
Assay [5] relates to KM-20L2.
The test system of assay [6] is M19-MEL.
Assay [7] relates to SNB-78.
Assay [8] concerns XF498.
Assay [9] concerns RXF 631.

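Five concentrations, 48 hours, 96-well plates. GI50: concentration for 50% inhibition of growth.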 Calls of active or inactive are those of the source. No stated cut-off is given here; in the data, active = GI50 up to about 1.1 µM and inactive = higher.

For the compound `N#CC1C[C@@H]2CC3(CCC2CN1C(=O)c1ccccc1)OCCO3` (some centres not stated), the GI50 in assay [1], in assay [2], in [3], in assay [4], in assay [5] and in [6] was > 100 µM (inactive) throughout. For the same compound, the GI50 in [7] and in assay [8] was > 100 µM (inactive) each time.
For `O=C1CCCCC1C1(O)C(=O)Nc2cc(F)ccc21` (configuration not stated), the GI50 in assay [1], in [2], in [3], in assay [4], in assay [5] and in assay [6] was > 100 µM (inactive) each time. Also, the GI50 in assay [7] and in assay [8] was > 100 µM (inactive) each time.
Consider `CN(N=O)C(=O)ON1C(=O)CCC1=O`, for which the GI50 in assay [1], in assay [2], in assay [3], in assay [4], in [5] and in assay [6] was > 100 µM (inactive) in each case. Further, the GI50 in assay [7] was > 100 µM (inactive).
`Clc1ccc(C2=NOC(C3CCCCC3)C2)cc1` (configuration not stated): the GI50 in assay [1], in assay [2], in assay [3], in assay [4], in assay [6] and in assay [7] was > 100 µM (inactive) each time.
Consider `CC(N)Cc1ccc(Cl)c(Cl)c1` (configuration not stated), for which the GI50 is 34.4 µM (inactive) in [1]; 24.2 µM (inactive) in [2]; 39.4 µM (inactive) in [3]; 27.8 µM (inactive) in assay [4]; 22.9 µM (inactive) in assay [5]; 24.2 µM (inactive) in [6]. The values for the GI50 in assay [7] and in [8] were 28.4 µM (inactive) and 10.9 µM (inactive), respectively.
`NC1=NNC(=O)c2nnc3c(C(=O)O)cnn3c2S1`: the GI50 in assay [1], in assay [2], in [4], in assay [5] and in assay [6] was > 100 µM (inactive) throughout.
As for `CCOC(=O)[C@H]1CSC[C@@H](C(=O)OC)N1`, the GI50 in assay [1], in assay [2], in assay [3] and in assay [6] was > 100 µM (inactive) each time.
In the case of `O=C(CP(=O)(O)O)c1cccs1`, the GI50 in assay [1], in assay [2], in [3], in assay [4], in assay [5] and in [6] was > 100 µM (inactive) in each case. Besides, the GI50 in [7] was > 100 µM (inactive).
For the compound `COc1cc2cc3c4c(cc(OC)c(OC)c4c2cc1OC)CCN3C(=O)OCCN1CCNCC1`, the GI50 in [1] is 15.2 µM (inactive); in [3], 13.5 µM (inactive); in assay [4], 17 µM (inactive); in assay [5], 11.8 µM (inactive); in [6], 6.95 µM (inactive); in assay [7] it was 16 µM (inactive). In addition, the GI50 in assay [8] was 15.3 µM (inactive).
In the case of `O=c1cc(-c2ccccc2)[nH]c2c(F)ccc(F)c12`, the GI50 in assay [1] is > 100 µM (inactive); in [2], 28.7 µM (inactive); in assay [3], 24.3 µM (inactive); in assay [4], > 100 µM (inactive); in assay [6], 41.4 µM (inactive).
`O=C(NCCCCCCCCCCCCNC(=O)c1cnc2ccccc2n1)c1cnc2ccccc2n1`: the GI50 in [1] was > 100 µM (inactive); in assay [2], 27.8 µM (inactive); in assay [3] it was 64.6 µM (inactive); in assay [4], 20.7 µM (inactive); in [5], > 100 µM (inactive); in assay [6], > 100 µM (inactive). Besides, the GI50 is 99.5 µM (inactive) in assay [9] and 76.9 µM (inactive) in [7].
Regarding `O=C1CC(S(=O)(=O)O)C=C1Nc1cccc(Cl)c1` (configuration not stated), the GI50 in assay [1], in assay [3], in [4], in assay [5], in assay [6] and in assay [7] was > 100 µM (inactive) each time. The GI50 in [8] is > 100 µM (inactive).
Take `COc1ccc(C(=O)C(c2ccc(OC)cc2)C2(O)C(=O)Nc3ccc([N+](=O)[O-])cc32)cc1` (configuration not stated): the GI50 was > 100 µM (inactive) in [1]; 48.8 µM (inactive) in assay [2]; > 100 µM (inactive) in assay [3]; > 100 µM (inactive) in [5]; > 100 µM (inactive) in assay [6]; > 100 µM (inactive) in assay [7].
Turning to `COC(=O)c1c2c(c(-c3ccccc3)c3c1-c1nc(Cl)ccc1CC3)CCc1ccc(Cl)nc1-2`, the GI50 in assay [1] was > 100 µM (inactive); in [4], > 100 µM (inactive); in assay [5], > 100 µM (inactive); in assay [6], > 100 µM (inactive); in assay [9], > 100 µM (inactive); in assay [7] it was 37.9 µM (inactive).
As to `O=S1(=O)c2ccccc2NC(c2ccc3ccccc3c2)CC1c1ccccc1F` (configuration not stated), the GI50 was > 100 µM (inactive) in assay [1]; > 100 µM (inactive) in assay [3]; 22.1 µM (inactive) in assay [4]; > 100 µM (inactive) in assay [5]; > 100 µM (inactive) in [6]; > 100 µM (inactive) in [9]. Besides, the GI50 in assay [8] was > 100 µM (inactive).
In the case of `CCOc1cc2c(cnc3c4cc(OC)c(OC)cc4ccc23)cc1OC`, the GI50 in [1], in [2], in assay [5], in assay [6] and in [8] was > 100 µM (inactive) in each case.
For `COc1ccc(NC(=O)CC(=O)N2N=C(N(CCC#N)c3cccc(C)c3)CC2c2ccccc2)cc1` (configuration not stated), the GI50 in [1], in [3], in assay [4], in [5], in assay [6] and in assay [7] was > 100 µM (inactive) in each case.
Regarding `CN/N=C(/CCN1CCCC1)CC(c1ccccc1)c1c(O)c2ccccc2oc1=O` (configuration not stated), the GI50 in [1], in assay [2], in [3], in [4], in assay [5] and in assay [6] was > 100 µM (inactive) in each case. For the same compound, the GI50 in assay [9], in [7] and in [8] was > 100 µM (inactive) in each case.
As to `Cc1cccc(C)c1NC(=O)CCCC(=O)C1CCC/C1=N\NC(=O)C(=O)NN` (configuration not stated), the GI50 in [1], in assay [2], in [3], in assay [4], in assay [5] and in assay [9] was > 100 µM (inactive) each time. Further, the GI50 in assay [7] and in [8] was > 100 µM (inactive) in each case.
With `NC(=O)c1ncn2c(=O)n(CCCl)nnc12` [MITOZOLOMIDE], the GI50 in assay [1] is 182 µM (inactive); in assay [2], 19.8 µM (inactive); in [3], 57.4 µM (inactive); in [4] it was 323 µM (inactive); in [5], 141 µM (inactive); in assay [6], 172 µM (inactive). The figures for the GI50 in [7] and in assay [8] were 185 µM (inactive) and 12.1 µM (inactive), respectively.
`CC(=O)Nc1ccc(/C=C2\N=C(c3ccccc3)OC2=O)cc1`: the GI50 in assay [1] is > 100 µM (inactive); in assay [2], 1 µM (active); in assay [4] it was > 100 µM (inactive); in [5] it was > 100 µM (inactive).
On to `O=C1CCSC2=C1SCc1sccc12`, for which the GI50 in [1], in [2], in assay [5], in assay [6], in assay [7] and in [8] was > 100 µM (inactive) each time.
In the case of `O=C1NC(O)n2c(=O)[nH]c(=O)n21` (configuration not stated), the GI50 in [1], in assay [3], in [4], in assay [5], in assay [6] and in [9] was > 100 µM (inactive) throughout. The GI50 in assay [7] and in assay [8] was > 100 µM (inactive) in each case.
As for `COc1ccccc1C1c2cc3c(cc2OC(O)(CO)C1C(=O)O)OCO3.COc1ccccc1C1c2cc3c(cc2OC2(O)COC(=O)C12)OCO3` (configuration not stated), the GI50 in [1], in [2], in [3], in [4], in assay [5] and in assay [6] was > 100 µM (inactive) throughout. In assay [7], the GI50 was > 100 µM (inactive).
`CCOC(=O)/C=C/c1ccccn1`: the GI50 in [1], in assay [2], in assay [4], in assay [6], in assay [9] and in [7] was > 100 µM (inactive) in each case. Further, the GI50 in assay [8] is > 100 µM (inactive).
With `COc1cccc(C=O)c1[O-].COc1cccc(C=O)c1[O-].[Zn+2]`, the GI50 in assay [1] was 47 µM (inactive); in assay [2], 51.6 µM (inactive); in assay [3], 60.5 µM (inactive); in [4], 40.9 µM (inactive); in assay [5], > 100 µM (inactive); in [6], 31.8 µM (inactive). For the same compound, in assay [7], the GI50 is > 100 µM (inactive).
As to `COc1ccc2c(c1)CCc1cnn(C3OC(COC(C)=O)C(OC(C)=O)C(OC(C)=O)C3OC(C)=O)c1-2` (configuration not stated), the GI50 is 46.8 µM (inactive) in assay [1]; 65.6 µM (inactive) in [2]; > 100 µM (inactive) in assay [3]; 22.5 µM (inactive) in assay [5]; 66.2 µM (inactive) in [6]; > 100 µM (inactive) in assay [9]. In addition, the GI50 in [7] is > 100 µM (inactive); in assay [8], 22.6 µM (inactive).
